Assay results as given in patent US7498460B2, “Isophthalic acid derivatives” (Bayer Healthcare AG, priority 2002, dated 2009).

Tests used:
human CysLT1 receptor = target: T1, human CysLT1 receptor (Homo sapiens, UniProt Q9Y271); assay: Cellular in vitro test to determine the CysLT1 activity (aequorin luminescence, LTD4 stimulation); format: cell-based; conditions: CHO K1 cells with aequorin and human CysLT1 receptor; agonist LTD4 3×10^−9 M
T1 construct: expressed in transfected cells; host or cells: CHO K1 (ATCC) constitutively expressing aequorin
T1 sequence (Q9Y271 1-337): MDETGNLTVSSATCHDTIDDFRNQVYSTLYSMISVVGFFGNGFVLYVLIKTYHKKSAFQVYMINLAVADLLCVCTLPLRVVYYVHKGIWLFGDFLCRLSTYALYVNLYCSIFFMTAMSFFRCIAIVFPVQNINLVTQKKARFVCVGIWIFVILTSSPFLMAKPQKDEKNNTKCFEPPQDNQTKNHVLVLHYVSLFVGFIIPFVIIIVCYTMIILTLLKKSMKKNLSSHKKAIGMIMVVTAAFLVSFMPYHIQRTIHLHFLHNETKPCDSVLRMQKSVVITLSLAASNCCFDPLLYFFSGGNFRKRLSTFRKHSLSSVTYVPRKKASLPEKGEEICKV
Excerpt: 2. Cellular In Vitro Test to Determine the CysLT1 Activity
A recombinant cell line is used to identify antagonists of the human cysteinyl-leukotriene 1 receptor (CysLT1R) and to quantify the activity of the substances described herein. The cell is originally derived from a hamster ovary epithelial cell (Chinese Hamster Ovary, CHO K1, ATCC: American Type Culture Collection, Manassas, Va. 20108, USA). The test cell line constitutively expresses the calcium-sensitive photoprotein aequorin which, after reconstitution with the cofactor coelenterazine, emits light when the cytoplasmic calcium concentration is increased (Rizzuto R, Simpson A W, Brini M, Pozzan T.; Nature 358 (1992) 325-327). The cell is additionally stably transfected with the human CysLT1 receptor (Lynch et al., Nature 399 (1999) 789-793). The resulting CysLT1R test cell responds to stimulation of the recombinant CysLT1 receptor (agonist: leukotriene D4 (LTD4)) with an intracellular release of calcium ions, which can be quantified through the resulting aequorin luminescence with a suitable luminometer (Milligan G, Marshall F, Rees S. Trends in Pharmacological Sciences 17 (1996) 235-237). Preincubation with antagonists of the CysLT1 receptor reduces the calcium release induced by the agonist LTD4 and thus the measured amount of light.
(§1) Test procedure: The cells are plated out two days before the test in culture medium (DMEM/F12 with Glutamax, Gibco Cat.# 61965-026; 10% FCS, Gibco Cat.# 10270-106; 1.4 mM sodium pyruvate, Gibco Cat.# 11360-039; 1.8 mM sodium bicarbonate, Gibco Cat.# 25080-060; 10 mM HEPES, Gibco Cat.# 15290-026; now belongs to Invitrogen GmbH, 76131 Karlsruhe) in 384- (or 1536-)well microtitre plates and kept in a cell incubator (96% humidity, 5% V/V CO2, 37° C.). On the day of the test, the culture medium is replaced by Tyrode solution (in mM: 140 NaCl, 5 KCl, 1 MgCl2, 2 CaCl2, 20 glucose, 20 HEPES) which additionally contains the cofactor coelenterazine (50 μM), and the microtitre plate is then incubated for a further 3-4 hours. 15 minutes after the test substances have been transferred into the wells of the microtitre plate, the resulting light signal is measured after addition of the LTD4 (3×10^−9M) in the luminometer.

human CysLT2 receptor = target: T2, human CysLT2 receptor (Homo sapiens, UniProt Q9NS75); assay: Cellular in vitro test to determine the CysLT2 activity (aequorin luminescence, LTD4 stimulation); format: cell-based; conditions: CHO K1 cells with aequorin and human CysLT2 receptor; agonist LTD4 3×10^−8 M
T2 construct: expressed in transfected cells; host or cells: CHO K1 (ATCC) constitutively expressing aequorin
T2 sequence (Q9NS75 1-346): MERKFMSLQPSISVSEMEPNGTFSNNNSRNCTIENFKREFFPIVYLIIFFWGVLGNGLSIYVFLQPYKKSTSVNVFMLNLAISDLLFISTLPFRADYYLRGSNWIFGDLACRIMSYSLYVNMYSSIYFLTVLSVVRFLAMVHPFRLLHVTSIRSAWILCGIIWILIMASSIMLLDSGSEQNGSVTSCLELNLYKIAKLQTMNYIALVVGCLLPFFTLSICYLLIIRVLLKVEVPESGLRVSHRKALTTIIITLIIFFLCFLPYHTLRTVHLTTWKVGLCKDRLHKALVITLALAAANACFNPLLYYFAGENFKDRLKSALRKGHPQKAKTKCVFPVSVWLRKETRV
Excerpt: B. Assessment of the Physiological Activity Abbreviations: DMEM Dulbecco's modified Eagle medium FCS Fetal calf serum HEPES 4-(2-hydroxyethyl)-1-piperazineethanesulphonic acid 1. Cellular In Vitro Test to Determine the CysLT2 Activity
A recombinant cell line is used to identify antagonists of the human cysteinyl-leukotriene 2 receptor (CysLT2R) and to quantify the activity of the substances described herein. The cell is originally derived from a hamster ovary epithelial cell (Chinese Hamster Ovary, CHO K1, ATCC: American Type Culture Collection, Manassas, Va. 20108, USA). The test cell line constitutively expresses the calcium-sensitive photoprotein aequorin which, after reconstitution with the cofactor coelenterazine, emits light when the cytoplasmic calcium concentration is increased (Rizzuto R, Simpson A W, Brini M, Pozzan T.; Nature 358 (1992) 325-327). The cell is additionally stably transfected with the human CysLT2 receptor (Heise et.al., JBC 275 (2000) 30531-30536). The resulting CysLT2R test cell responds to stimulation of the recombinant CysLT2 receptor (agonists: leukotriene D4 (LTD4) and leukotriene C4 (LTC4)) with an intracellular release of calcium ions, which can be quantified through the resulting aequorin luminescence with a suitable luminometer (Milligan G, Marshall F, Rees S, Trends in Pharmacological Sciences 17 (1996) 235-237). Preincubation with antagonists of the CysLT2 receptor reduces the calcium release induced by the agonists LTD4 and LTC4 and thus the measured amount of light.
as §1, with “CaCl2;” for “CaCl2,”, “(3×10^−8 M)” for “(3×10^−9M)”

[1] = tested on: isolated guinea pig hearts; assay: Langendorff guinea pig heart: perfusion pressure and left ventricular pressure after LTC4
Method: 3. […] to Detect the Cardiovascular Effect: Langendorff Guinea Pig Heart
The heart is removed after opening the chest cavity of anaesthetized guinea pigs and is introduced into a conventional Langendorff apparatus. The coronary arteries are subjected to a constant volume (10 ml/min) perfusion, and the perfusion pressure arising thereby is recorded via an appropriate pressure transducer. A decrease in the perfusion pressure in this arrangement corresponds to a relaxation of the coronary arteries. At the same time, the pressure developed by the heart during each contraction (the left ventricular pressure) is measured by a balloon introduced into the left ventricle, and a further pressure transducer. The rate at which the isolated heart beats is found by calculation from the number of contractions per unit time.
To detect the effect of CysLT2 receptor antagonists, the perfusion with the agonist LTC4 (10^−8 M) is started 15 minutes before addition of increasing concentrations of the test substance (10^−8 to 10^−6 M).

[2] = LTC4 (10^−8M) + test sub. (10^−6M)
[3] = LTC4 (10^−8M) + test sub. (10^−7M)
[4] = LTC4 (10^−8M) + test sub. (10^−8M)

Row | IC50 (human CysLT1 receptor) [nM] | IC50 (human CysLT2 receptor) [nM] | SMILES | melting point [°C] | Left ventricular pressure relative to control without LTC4 [1, 2] [%] | Perfusion pressure relative to control without LTC4 [1, 2] [%] | Left ventricular pressure relative to control without LTC4 [1, 3] [%] | Perfusion pressure relative to control without LTC4 [1, 3] [%] | Left ventricular pressure relative to control without LTC4 [1, 4] [%] | Perfusion pressure relative to control without LTC4 [1, 4] [%]
1 |  |  | O=C(O)c1ccc(OCCCc2ccc(OCCCCOc3ccccc3)cc2)c(C(=O)NC2CCCC(C(=O)O)C2)c1 (racemic) [Example 12, 3-{[(3-Carboxycyclohexyl)amino]carbonyl}-4-{3-[4-(4-phenoxybutoxy)phenyl]-propoxy}benzoic acid (racemate A)] | > 210 |  |  |  |  |  | 
2 |  |  | O=C(O)c1ccc(OCCCc2ccc(OCc3ccc(-c4ccccc4)cc3)cc2)c(C(=O)N2CCC(C(=O)O)CC2)c1 [Example 13, 1-(2-{3-[4-(1,1′-Biphenyl-4-ylmethoxy)phenyl]propoxy}-5-carboxybenzoyl)-4-piperidinecarboxylic acid] | 193 to 194 |  |  |  |  |  | 
3 |  |  | O=C(O)c1ccc(OCCCc2ccc(OCCCCOc3ccccc3)cc2)c(C(=O)N2CCC(C(=O)O)CC2)c1 [Example 15, 1-(5-Carboxy-2-{3-[4-(4-phenoxybutoxy)phenyl]propoxy}benzoyl)-4-piperidine-carboxylic acid] | 142 to 143 |  |  |  |  |  | 
4 |  |  | O=C(O)c1ccc(OCCCc2ccc(OCCCCOc3ccccc3)cc2)c(C(=O)NC2CCC(C(=O)O)CC2)c1 (stereo not shown) [Example 16, 3-{[(4-Carboxycyclohexyl)amino]carbonyl}-4-{3-[4-(4-phenoxybutoxy)phenyl]-propoxy}benzoic acid] | 163 to 165 |  |  |  |  |  | 
5 |  |  | O=C(O)CC1CCN(C(=O)c2cc(C(=O)O)ccc2OCCCc2ccc(OCCCCOc3ccccc3)cc2)CC1 [Example 18, 3-{[4-(Carboxymethyl)-1-piperidinyl]carbonyl}-4-{3-[4-(4-phenoxybutoxy)phenyl]-propoxy}benzoic acid] | 192 |  |  |  |  |  | 
6 | 2000 | 5 | O=C(O)c1ccc(OCCCc2ccc(OCCCC3CCCCC3)cc2)c(C(=O)NC2CCCC(C(=O)O)C2)c1 (stereo not shown) [Example 23, 3-{[(3-Carboxycyclohexyl)amino]carbonyl}-4-{3-[4-(3-cyclohexylpropoxy)phenyl]-propoxy}benzoic acid] | 160 | 97 | 111 | 84 | 127 | 72 | 133
7 | 2500 | 14 | O=C(O)c1ccc(OCCCc2ccc(OCCCC3CCCCC3)cc2)c(C(=O)N2CCC(C(=O)O)CC2)c1 [Example 31, 1-(5-Carboxy-2-{3-[4-(3-cyclohexylpropoxy)phenyl]propoxy}benzoyl)piperidine-4-carboxylic acid] | 183.4 to 184.5 | 87 | 112 | 81 | 123 | 67 | 128
8 | > 10000 | 15 | CC(C)Oc1ccc(COc2ccc(CCCOc3ccc(C(=O)O)cc3C(=O)NC3CCCC(C(=O)O)C3)cc2)cc1 (stereo not shown) [Example 33, 3-{[(3-Carboxycyclohexyl)amino]carbonyl}-4-(3-{4-[(4-isopropoxybenzyl)oxy]-phenyl}propoxy)benzoic acid] |  | 84 | 108 | 57 | 121 | 44 | 122

Row | SMILES | IC50 (human CysLT1 receptor) [nM] | IC50 (human CysLT2 receptor) [nM] | melting point [°C] | Left ventricular pressure relative to control without LTC4 [1, 2] [%] | Perfusion pressure relative to control without LTC4 [1, 2] [%] | Left ventricular pressure relative to control without LTC4 [1, 3] [%] | Perfusion pressure relative to control without LTC4 [1, 3] [%] | Left ventricular pressure relative to control without LTC4 [1, 4] [%] | Perfusion pressure relative to control without LTC4 [1, 4] [%]
9 | O=C(O)c1ccc(OCCCc2ccc(OCCCCOc3ccccc3)cc2)c(C(=O)NC2CCCC(C(=O)O)C2)c1 (racemic) [Example 11, 3-{[(3-Carboxycyclohexyl)amino]carbonyl}-4-{3-[4-(4-phenoxybutoxy)phenyl]-propoxy}benzoic acid (racemate B)] | > 10000 | 35 | 182 to 183 | 79 | 108 | 60 | 112 | 44 | 125
